Results as given in patent publication US20130217579A1, “Pesticide Preparations Containing N-Substituted 2-Pyrrolidone-4-Carboxylic Acid Esters” (CLARIANT FINANCE (BVI) LIMITED, priority 2010, published 2013).

Assay: Solubilities of pesticides in compounds of formula (1)
Type: physicochemical
Method: The solubilities of various pesticides were determined in various compounds of formula (1) at 25° C. All data are in % by weight (Table 1).

CCCCOC(=O)C1CC(=O)N(C)C1 (centres unmarked) [Example 3, N-butyl N-methyl-2-pyrrolidone-4-carboxylate]
Solubility of Pendimethalin in compound of formula (1): 38.9 % by weight
Solubility of Tebuconazole in compound of formula (1): 37.0 % by weight
Solubility of Triadimefon in compound of formula (1): 43.0 % by weight
Solubility of Trifloxystrobin in compound of formula (1): 30.1 % by weight
Solubility of Trifluralin in compound of formula (1): 57.4 % by weight
